Article PMC8351955, “Targeting Mycobacterium tuberculosis response to environmental cues for the development of effective antitubercular drugs” (PLoS Biology, 2021)
Like-named read-outs stand apart in the source and are kept apart here.

Key:
[1] = tested on: Mtb growth in cholesterol media; design: method as in PubChem AID 1259343; settings: ref PubChem AID 1259343; cited from earlier work
CYP2D6 = CYP2D6 (Homo sapiens, UniProt P10635); assay: Human cytochrome P450 inhibition, 2D6; type: in vitro ADME; settings: read-out: % inhibition of CYP 2D6
Chain of CYP2D6 (P10635 whole entry): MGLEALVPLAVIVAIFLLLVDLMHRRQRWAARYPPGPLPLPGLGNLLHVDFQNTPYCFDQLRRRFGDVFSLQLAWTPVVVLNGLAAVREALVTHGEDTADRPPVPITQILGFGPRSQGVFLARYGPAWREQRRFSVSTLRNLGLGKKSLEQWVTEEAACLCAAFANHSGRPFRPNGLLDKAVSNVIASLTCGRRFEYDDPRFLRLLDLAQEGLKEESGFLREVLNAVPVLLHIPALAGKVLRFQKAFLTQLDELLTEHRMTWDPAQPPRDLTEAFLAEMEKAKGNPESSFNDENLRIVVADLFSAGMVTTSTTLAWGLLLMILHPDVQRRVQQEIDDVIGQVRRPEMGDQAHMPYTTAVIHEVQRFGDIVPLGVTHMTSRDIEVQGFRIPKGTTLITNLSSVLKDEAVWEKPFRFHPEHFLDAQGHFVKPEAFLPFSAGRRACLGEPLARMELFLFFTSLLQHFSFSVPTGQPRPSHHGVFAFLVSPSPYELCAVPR
Procedure: Assays examining mouse and human liver microsomal stability, kinetic aqueous solubility, mouse and human plasma protein binding and stability, and human cytochrome P450 inhibition characteristics of the compounds were run by BioDuro (San Diego, CA), using standard protocols as previously described [37]. hERG inhibition assays were also performed by BioDuro.

[2] = Human plasma protein binding; type: in vitro ADME
Mouse plasma stability = type: in vitro ADME; settings: 5-h incubation
[3] = Pharmacokinetic assay, single oral dose in CD-1 mice; type: in vivo; settings: female; for AUC(0-t): mouse, plasma, CD-1 mice, read-out: plasma AUC0–5h
Procedure: Blood samples were collected in K2EDTA-coated tubes predose, 0.5, 1, 3, and 5 hours post-dose, placed on ice, and centrifuged to recover plasma. The recovered plasma was kept at −80°C as needed prior to analysis, which was performed as previously described. In brief, a Sciex Applied Biosystems Qtrap 4000 triple-quadrupole mass spectrometer coupled to an Agilent 1260 HPLC system was used for HPLC coupled to tandem mass spectrometry (LC–MS/MS) quantitative analysis of the samples, with chromatography attained using an Agilent Zorbax SB-C8 column (2.1 × 30 mm; particle size, 3.5 μm) and a reverse-phase gradient elution. The aqueous mobile phase consisted of Milli-Q deionized water with 0.1% formic acid (A), while the organic mobile phase was 0.1% formic acid in acetonitrile (B). The gradient setup was as follows: 5% to 90% B over 2 minutes, 1 minute at 90% B, then an immediate drop to 5% B and an additional 1 minute at 5% B. Quantification of molecules was carried out via multiple reaction monitoring of parent/daughter transitions in electrospray positive ionization mode, and sample analyses accepted if quality control and standard samples had concentrations within 20% of the nominal concentration. Preparation of compounds for generation of standard curves and quality control spiking solutions were performed as previously described. Data were processed using Analyst software (Version 1.6.2; Applied Biosystems Sciex, Framingham, MA).

CCSc1ncc(CN2CCN(c3nc4ccccc4o3)CC2)cn1 [C6, 2-(4-((2-(ethylthio)pyrimidin-5-yl)methyl)piperazin-1-yl)benzo[d]oxazole]
Call in screen for inhibition of Mtb growth in cholesterol media [1]: positive for growth inhibition | inhibition at 10 µM (CYP2D6): 10.5% | fraction unbound [2]: 0.008 | remaining at 5 h (Mouse plasma stability): > 99.9% | Kp at 5 h ([3]; CD-1, mouse, 5-hour partitioning between plasma and lung, 25 mg/kg po, read-out: Clung/Cplasma): 0.86 | AUC(0-t) ([3]; single 5 mg/kg po dose): 5480 ng·h/mL | AUC(0-t) ([3]; single 25 mg/kg po dose): 25700 ng·h/mL
